Reference: patent US20040093079A1, “Compositions and methods for the reduction of post-angioplasty stenosis” (priority 2001, published 2004)

How the values were obtained:
[1] = molecular target: T1, soluble guanylyl cyclase (sGC) (Homo sapiens, UniProt Q02108+Q02153); conditions: cited from earlier work
T1 sequence (Q02153 1-619): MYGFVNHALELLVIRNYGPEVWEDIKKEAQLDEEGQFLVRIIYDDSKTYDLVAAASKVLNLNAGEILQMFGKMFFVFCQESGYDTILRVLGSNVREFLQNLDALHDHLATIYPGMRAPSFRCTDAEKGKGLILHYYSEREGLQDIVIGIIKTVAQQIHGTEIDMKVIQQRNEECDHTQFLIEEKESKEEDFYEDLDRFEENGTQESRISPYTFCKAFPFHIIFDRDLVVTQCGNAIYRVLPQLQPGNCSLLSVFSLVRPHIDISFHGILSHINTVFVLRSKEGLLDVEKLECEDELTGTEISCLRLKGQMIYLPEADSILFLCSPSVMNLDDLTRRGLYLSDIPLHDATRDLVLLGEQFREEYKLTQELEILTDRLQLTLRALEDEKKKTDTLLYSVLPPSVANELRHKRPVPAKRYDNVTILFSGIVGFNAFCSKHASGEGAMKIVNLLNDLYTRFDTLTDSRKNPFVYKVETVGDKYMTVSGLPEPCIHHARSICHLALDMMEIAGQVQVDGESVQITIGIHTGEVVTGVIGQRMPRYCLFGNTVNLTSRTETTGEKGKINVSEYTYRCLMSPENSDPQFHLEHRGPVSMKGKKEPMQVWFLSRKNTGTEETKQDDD
T1 sequence (Q02108 1-690): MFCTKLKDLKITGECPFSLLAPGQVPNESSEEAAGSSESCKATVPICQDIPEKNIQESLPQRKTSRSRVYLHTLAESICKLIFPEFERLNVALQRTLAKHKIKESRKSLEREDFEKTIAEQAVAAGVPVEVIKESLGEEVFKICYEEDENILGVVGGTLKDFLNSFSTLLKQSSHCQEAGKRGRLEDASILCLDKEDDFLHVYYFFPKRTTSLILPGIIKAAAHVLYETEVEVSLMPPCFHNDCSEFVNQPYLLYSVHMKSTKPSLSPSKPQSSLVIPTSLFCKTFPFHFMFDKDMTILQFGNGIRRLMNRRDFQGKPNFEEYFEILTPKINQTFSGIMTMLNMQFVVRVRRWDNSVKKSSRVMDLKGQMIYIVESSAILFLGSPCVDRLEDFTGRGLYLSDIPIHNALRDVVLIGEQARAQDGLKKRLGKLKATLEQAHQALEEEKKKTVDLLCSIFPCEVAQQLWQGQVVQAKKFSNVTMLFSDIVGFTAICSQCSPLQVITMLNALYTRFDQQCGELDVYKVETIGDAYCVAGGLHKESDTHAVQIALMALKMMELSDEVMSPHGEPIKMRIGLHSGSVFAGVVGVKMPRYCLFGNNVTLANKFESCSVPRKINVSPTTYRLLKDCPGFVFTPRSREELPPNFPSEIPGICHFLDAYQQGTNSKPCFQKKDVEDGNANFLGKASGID

vascular HO-1 = conditions: pharmacologic administration of hemin; cited from earlier work
[2] = system: balloon injured left carotid artery (neointima formation); test: Morphometric and histologic analysis of balloon-injured left carotid artery 2 weeks post-injury; assay type: in vivo, rat
Description: The established rat carotid artery (CA) provided the model of balloon angioplasty to illustrate the in vivo arterial response to injury. Male Sprague Dawley rats (Harlan, Indianapolis, Ind.) weighing an average 497 g were anesthetized with a combination anesthetic (ketamine, zylazine, and acepromazine; 0.5-0.7 ml/kg, IM; VetMed Drugs, Houston, Tex.), and the left CA and external carotid branch exposed.
A Fogarty 2F embolectomy catheter (Baxter Healthcare Corp., Irvine, Calif.) was introduced into the external carotid branch through an arteriotomy incision and advanced to the aortic arch. The balloon was inflated and withdrawn three times with rotation. The catheter was removed and the external carotid ligated. The overlying tissue was sutured and the skin closed with rodent wound clips.
In one embodiment, the entire length of the left CA was balloon injured, immediately followed by perivascular application of YC-1 (1 mg) on the distal section. Sites where tissues were taken for “distal+YC-1” and “proximal−YC-1” are indicated. The right CA served as an uninjured control. EC=external carotid branch; IC=internal carotid branch.
Immediately following balloon injury, at least about 200 μl of a 25% solution of a copolymer gel (Pluronic F-127; BASF Corporation, Mount Olive, N.J.) plus YC-1 (at least about 1 mg in 50 μl DMSO; Calbiochem, La Jolla, Calif.) was administered topically to the exposed adventitia of the distal CA section. […] In all experiments, the entire length of the left CA was injured (avg. 22 mm), while the contralateral right CA served as an unmanipulated untreated control. Only the distal half of the injured left CA was exposed during the surgery, and this section (approximately 11 mm) was treated with YC-1 (or empty gel) while the proximal half remained untreated. A cohort of animals that was balloon-injured and not exposed to any gel or other treatment served as a separate control group.
Acute studies illustrating enzyme and cGMP induction used freshly obtained tissues that were removed from the sacrificed animal and immediately snap-frozen. In one embodiment, two week studies were performed and morphologic remodeling of the vessel wall was monitored in tissue from animals that were perfusion-fixed transcardially using warmed PBS followed by 10% buffered formalin phosphate. Tissues were fixed, processed by standard procedures, and paraffin-embedded, procedures that are well-known to those of ordinary skill in the art of histology. Five micron sections were cut using a rotary microtome and placed on pre-treated slides. For Verhoff's elastic tissue staining, slides were deparaffinized and stained with Verhoff's solution of alcoholic hematoxylin, ferric chloride, and potassium iodine. Slides differentiated with ferric chloride and counterstained with Van Gieson's solution containing 1% acid fuchsin and picric acid.
Microscopic quantitation of vessel dimensions was performed using Zeiss Image 3.0 (Media Cybernetics) and Adobe Photoshop 4.0™ (Adobe Systems) software systems linked through a CCD color camera (Leaf Microlumina, Leaf Systems, USA) to a Zeiss Axioskop 50 light microscope (Carl Zeiss, Germany). Images were measured for perimeters and areas corresponding to internal and external elastic laminae and lumen. Numerical transformations provided data for neointimal and medial wall areas and vessel diameters.
FIG. 6 depicts representative morphometric analyses for (a) neointimal cross-sectional area, (b) neointimal area/medial wall area ratio, (c) neointimal thickness and (d) medial wall area [(a), (b) and (c) statistically significant with p<0.001; (d) statistically significant with p<0.05]. Data for balloon injured left CA distal sections exposed to YC-1 (“distal+YC-1”) and for balloon injured left CA proximal sections not exposed to YC-1 (“proximal−YC-1”) are shown. Values represent mean±SE. For all parameters n=6 animals in the control group and n=9 animals in the YC-1 treated group.

[3] = system: vessel wall cGMP (sGC/cGMP system) in left carotid artery; test: Cyclic GMP levels by RIA in balloon injured left carotid artery sections after perivascular YC-1; assay type: in vivo, rat
Description: Cyclic GMP levels were measured in vessel samples with a competitive RIA using ^125I-labeled cGMP, following instructions from the manufacturer (Amersham Pharmacia Biotech, Piscataway, N.J.). […]

Compound: [N]=O [NO, nitric oxide]
- activation of the purified enzyme (sGC) [1]: 400 fold

Compound: [C-]#[O+] [CO, carbon monoxide]
- activation of the purified enzyme (sGC) [1]: 4- to 6 fold

Compound: hemin
- vascular HO-1 expression (vascular HO-1): upregulated vascular HO-1

Compound: OCc1ccc(-c2nn(Cc3ccccc3)c3ccccc23)o1 [YC-1, 3-(5′-hydroxymethyl-2′-furyl)-1-benzyl indazole]
- histology of elastin-stained cross-section: adventitia and collagen staining ([2]; FIG. 5 panel (B), distal section treated with 1 mg YC-1, 2 weeks post-injury): decreased adventitia and reduced collagen staining
- lengths of internal elastic laminae and external elastic laminae ([2]; between and among all treatment groups, 2 weeks post-injury): No differences were detected
- neointimal cross-sectional area, attenuation ([2]; distal YC-1 (1 mg) sections vs proximal unexposed sections of same vessel, 2 weeks post-injury, p<0.001, n=9): −74%
- neointimal thickness, attenuation ([2]; distal YC-1 (1 mg) sections vs proximal unexposed sections, 2 weeks post-injury, p<0.001, n=9): -76%
- medial wall cross-sectional area, diminution ([2]; distal YC-1 (1 mg) sections vs proximal unexposed sections, 2 weeks post-injury, p<0.05, n=9): −12%
- neointimal area/medial wall area ratio, attenuation ([2]; distal YC-1 (1 mg) sections vs proximal unexposed sections, 2 weeks post-injury, p=0.001, n=9): −72%
- stimulation of CO-induced sGC (specific activity) [1]: approximately 400 fold
- YC-1 induced alterations in cGMP ([3]; CA sections from a separate group of uninjured rats (data not shown)): do not show YC-1 induced alterations in cGMP
- cGMP content ([3]; injured CA distal sections exposed to YC-1 (1 mg in gel), 24 hours post-injury, mean±SE, n=5, proximal unexposed sections 0.64±0.11, p=0.012): 1.23±0.13
